Measured values published in the supplement of paper PMC8149375.

How the values were obtained:
Conditions in all cases: treatment: drug + dasatinib (fixed dose, not stated); 5 days
769-P [1] = experiment: GI50 of drug in presence of dasatinib; higher = less potent
Protocol: (§1)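 Primary HTS combination arm: 8 RCC cell lines treated with 8 doses (up to 10 uM) of each library drug plus a fixed dose of dasatinib (dose not stated) for 5 days; viability read by CellTiter-Glo and normalised to DMSO. GI50 was fitted with XLfit, AUC is the area under the dose-response curve, and minimum viability is the lowest fraction of DMSO viability across doses.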

786-O [2] = experiment: as above
Protocol: as §1

A498 [3] = experiment: as above
Protocol: as §1

ACHN [4] = experiment: as above
Protocol: as §1

CAKI-1 [5] = experiment: as above
Protocol: as §1

SN12C [6] = experiment: as above
Protocol: as §1

TK-10 [7] = experiment: as above
Protocol: as §1

UO-31 [8] = experiment: as above
Protocol: as §1

769-P [9] = experiment: minimum viability across doses, drug + dasatinib, relative to DMSO (fraction); higher = less growth inhibition
Protocol: as §1

786-O [10] = experiment: as above
Protocol: as §1

A498 [11] = experiment: as above
Protocol: as §1

ACHN [12] = experiment: as above
Protocol: as §1

CAKI-1 [13] = experiment: as above
Protocol: as §1

SN12C [14] = experiment: as above
Protocol: as §1

TK-10 [15] = experiment: as above
Protocol: as §1

UO-31 [16] = experiment: as above
Protocol: as §1

769-P [17] = experiment: AUC of dose-response viability curve, drug + dasatinib, normalised to DMSO (arbitrary (AUC of normalised viability)); higher = less growth inhibition
Protocol: as §1

786-O [18] = experiment: as above
Protocol: as §1

A498 [19] = experiment: as above
Protocol: as §1

ACHN [20] = experiment: as above
Protocol: as §1

CAKI-1 [21] = experiment: as above
Protocol: as §1

SN12C [22] = experiment: as above
Protocol: as §1

TK-10 [23] = experiment: as above
Protocol: as §1

UO-31 [24] = experiment: as above
Protocol: as §1

CCc1cc(Nc2nccc(-c3c(-c4ccc(OC)c(C(=O)Nc5c(F)cccc5F)c4)nc4ccccn34)n2)c(OC)cc1N1CCC(N2CCN(S(C)(=O)=O)CC2)CC1 + Cc1nc(Nc2ncc(C(=O)Nc3c(C)cccc3Cl)s2)cc(N2CCN(CCO)CC2)n1 [dasatinib]
GI50 of drug (769-P [1]): 3100 nM
GI50 of drug (786-O [2]): > 10000 nM
GI50 of drug (A498 [3]): > 10000 nM
GI50 of drug (ACHN [4]): > 10000 nM
GI50 of drug (CAKI-1 [5]): 3060 nM
GI50 of drug (SN12C [6]): > 10000 nM
GI50 of drug (TK-10 [7]): > 10000 nM
GI50 of drug (UO-31 [8]): > 10000 nM
minimum viability across doses (769-P [9]): 0.445
minimum viability across doses (786-O [10]): 0.641
minimum viability across doses (A498 [11]): 0.849
minimum viability across doses (ACHN [12]): 0.488
minimum viability across doses (CAKI-1 [13]): 0.406
minimum viability across doses (SN12C [14]): 0.644
minimum viability across doses (TK-10 [15]): 0.678
minimum viability across doses (UO-31 [16]): 0.86
AUC of dose-response viability curve (769-P [17]): 2.19
AUC of dose-response viability curve (786-O [18]): 2.71
AUC of dose-response viability curve (A498 [19]): 3.42
AUC of dose-response viability curve (ACHN [20]): 1.97
AUC of dose-response viability curve (CAKI-1 [21]): 2.19
AUC of dose-response viability curve (SN12C [22]): 2.4
AUC of dose-response viability curve (TK-10 [23]): 2.59
AUC of dose-response viability curve (UO-31 [24]): 3.28

c1ccc2c(CCNc3ccc(Nc4ccncc4)cc3)c[nH]c2c1 + Cc1nc(Nc2ncc(C(=O)Nc3c(C)cccc3Cl)s2)cc(N2CCN(CCO)CC2)n1 [dasatinib]
GI50 of drug (769-P [1]): 280 nM
GI50 of drug (786-O [2]): > 10000 nM
GI50 of drug (A498 [3]): 748 nM
GI50 of drug (ACHN [4]): 69.5 nM
GI50 of drug (CAKI-1 [5]): 143 nM
GI50 of drug (SN12C [6]): 672 nM
GI50 of drug (TK-10 [7]): 531 nM
GI50 of drug (UO-31 [8]): 372 nM
minimum viability across doses (769-P [9]): 0.0334
minimum viability across doses (786-O [10]): 0.00475
minimum viability across doses (A498 [11]): 0.0451
minimum viability across doses (ACHN [12]): 0.00193
minimum viability across doses (CAKI-1 [13]): 0.0392
minimum viability across doses (SN12C [14]): 0.00337
minimum viability across doses (TK-10 [15]): 0.00918
minimum viability across doses (UO-31 [16]): 0.0188
AUC of dose-response viability curve (769-P [17]): 1.69
AUC of dose-response viability curve (786-O [18]): 1.39
AUC of dose-response viability curve (A498 [19]): 2.32
AUC of dose-response viability curve (ACHN [20]): 1.1
AUC of dose-response viability curve (CAKI-1 [21]): 1.49
AUC of dose-response viability curve (SN12C [22]): 1.86
AUC of dose-response viability curve (TK-10 [23]): 1.83
AUC of dose-response viability curve (UO-31 [24]): 2.3

O=c1cc(-c2cccc3c2Sc2ccccc2S3)oc(N2CCOCC2)c1 + Cc1nc(Nc2ncc(C(=O)Nc3c(C)cccc3Cl)s2)cc(N2CCN(CCO)CC2)n1 [dasatinib]
GI50 of drug (769-P [1]): > 10000 nM
GI50 of drug (786-O [2]): > 10000 nM
GI50 of drug (A498 [3]): > 10000 nM
GI50 of drug (ACHN [4]): 20 nM
GI50 of drug (CAKI-1 [5]): 4310 nM
GI50 of drug (SN12C [6]): > 10000 nM
GI50 of drug (TK-10 [7]): > 10000 nM
GI50 of drug (UO-31 [8]): > 10000 nM
minimum viability across doses (769-P [9]): 0.635
minimum viability across doses (786-O [10]): 0.561
minimum viability across doses (A498 [11]): 0.747
minimum viability across doses (ACHN [12]): 0.449
minimum viability across doses (CAKI-1 [13]): 0.31
minimum viability across doses (SN12C [14]): 0.659
minimum viability across doses (TK-10 [15]): 0.682
minimum viability across doses (UO-31 [16]): 0.7
AUC of dose-response viability curve (769-P [17]): 2.38
AUC of dose-response viability curve (786-O [18]): 2.43
AUC of dose-response viability curve (A498 [19]): 3.16
AUC of dose-response viability curve (ACHN [20]): 1.86
AUC of dose-response viability curve (CAKI-1 [21]): 2.12
AUC of dose-response viability curve (SN12C [22]): 2.48
AUC of dose-response viability curve (TK-10 [23]): 2.57
AUC of dose-response viability curve (UO-31 [24]): 3.22

CCn1cc(-c2ccnc3[nH]c(-c4cccc(CN(C)C)c4)cc23)c(-c2ccc(NC(=O)N(C)C)cc2)n1 + Cc1nc(Nc2ncc(C(=O)Nc3c(C)cccc3Cl)s2)cc(N2CCN(CCO)CC2)n1 [dasatinib]
GI50 of drug (769-P [1]): 785 nM
GI50 of drug (786-O [2]): 28.4 nM
GI50 of drug (A498 [3]): 2170 nM
GI50 of drug (ACHN [4]): 73.7 nM
GI50 of drug (CAKI-1 [5]): 96.9 nM
GI50 of drug (SN12C [6]): 128 nM
GI50 of drug (TK-10 [7]): 635 nM
GI50 of drug (UO-31 [8]): 2870 nM
minimum viability across doses (769-P [9]): 0.0742
minimum viability across doses (786-O [10]): 0.0106
minimum viability across doses (A498 [11]): 0.131
minimum viability across doses (ACHN [12]): 0.00393
minimum viability across doses (CAKI-1 [13]): 0.0134
minimum viability across doses (SN12C [14]): 0.00824
minimum viability across doses (TK-10 [15]): 0.0524
minimum viability across doses (UO-31 [16]): 0.0175
AUC of dose-response viability curve (769-P [17]): 2.05
AUC of dose-response viability curve (786-O [18]): 1.39
AUC of dose-response viability curve (A498 [19]): 2.97
AUC of dose-response viability curve (ACHN [20]): 1.33
AUC of dose-response viability curve (CAKI-1 [21]): 1.42
AUC of dose-response viability curve (SN12C [22]): 1.61
AUC of dose-response viability curve (TK-10 [23]): 2.03
AUC of dose-response viability curve (UO-31 [24]): 3.82

COc1ccc(-c2ccc3c(N4CCOCC4)nc(N4C[C@@H](C)O[C@@H](C)C4)nc3n2)cc1CO + Cc1nc(Nc2ncc(C(=O)Nc3c(C)cccc3Cl)s2)cc(N2CCN(CCO)CC2)n1 [dasatinib]
GI50 of drug (769-P [1]): 360 nM
GI50 of drug (786-O [2]): 478 nM
GI50 of drug (A498 [3]): 1830 nM
GI50 of drug (ACHN [4]): 50.7 nM
GI50 of drug (CAKI-1 [5]): 250 nM
GI50 of drug (SN12C [6]): 482 nM
GI50 of drug (TK-10 [7]): 379 nM
GI50 of drug (UO-31 [8]): 1100 nM
minimum viability across doses (769-P [9]): 0.136
minimum viability across doses (786-O [10]): 0.176
minimum viability across doses (A498 [11]): 0.252
minimum viability across doses (ACHN [12]): 0.0839
minimum viability across doses (CAKI-1 [13]): 0.0643
minimum viability across doses (SN12C [14]): 0.196
minimum viability across doses (TK-10 [15]): 0.168
minimum viability across doses (UO-31 [16]): 0.0195
AUC of dose-response viability curve (769-P [17]): 1.75
AUC of dose-response viability curve (786-O [18]): 1.93
AUC of dose-response viability curve (A498 [19]): 2.77
AUC of dose-response viability curve (ACHN [20]): 1.33
AUC of dose-response viability curve (CAKI-1 [21]): 1.56
AUC of dose-response viability curve (SN12C [22]): 2.03
AUC of dose-response viability curve (TK-10 [23]): 1.87
AUC of dose-response viability curve (UO-31 [24]): 2.56

CNC(=O)c1c(F)cccc1Nc1nc(Nc2cc3c(cc2OC)CCN3C(=O)CN(C)C)nc2[nH]ccc12 + Cc1nc(Nc2ncc(C(=O)Nc3c(C)cccc3Cl)s2)cc(N2CCN(CCO)CC2)n1 [dasatinib]
GI50 of drug (769-P [1]): 1300 nM
GI50 of drug (786-O [2]): 686 nM
GI50 of drug (A498 [3]): 8320 nM
GI50 of drug (ACHN [4]): 434 nM
GI50 of drug (CAKI-1 [5]): 919 nM
GI50 of drug (SN12C [6]): 1520 nM
GI50 of drug (TK-10 [7]): 1660 nM
GI50 of drug (UO-31 [8]): 2920 nM
minimum viability across doses (769-P [9]): 0.0146
minimum viability across doses (786-O [10]): 0.00553
minimum viability across doses (A498 [11]): 0.015
minimum viability across doses (ACHN [12]): 0.0022
minimum viability across doses (CAKI-1 [13]): 0.00312
minimum viability across doses (SN12C [14]): 0.004
minimum viability across doses (TK-10 [15]): 0.189
minimum viability across doses (UO-31 [16]): 0.0173
AUC of dose-response viability curve (769-P [17]): 1.96
AUC of dose-response viability curve (786-O [18]): 1.84
AUC of dose-response viability curve (A498 [19]): 3.85
AUC of dose-response viability curve (ACHN [20]): 1.62
AUC of dose-response viability curve (CAKI-1 [21]): 1.87
AUC of dose-response viability curve (SN12C [22]): 2.11
AUC of dose-response viability curve (TK-10 [23]): 2.17
AUC of dose-response viability curve (UO-31 [24]): 3.45

Cn1cc(-c2ccc3nnc(C(F)(F)c4ccc5ncccc5c4)n3n2)cn1 + Cc1nc(Nc2ncc(C(=O)Nc3c(C)cccc3Cl)s2)cc(N2CCN(CCO)CC2)n1 [dasatinib]
GI50 of drug (769-P [1]): 7400 nM
GI50 of drug (786-O [2]): > 10000 nM
GI50 of drug (A498 [3]): > 10000 nM
GI50 of drug (ACHN [4]): > 10000 nM
GI50 of drug (CAKI-1 [5]): > 10000 nM
GI50 of drug (SN12C [6]): > 10000 nM
GI50 of drug (TK-10 [7]): > 10000 nM
GI50 of drug (UO-31 [8]): > 10000 nM
minimum viability across doses (769-P [9]): 0.469
minimum viability across doses (786-O [10]): 0.566
minimum viability across doses (A498 [11]): 0.854
minimum viability across doses (ACHN [12]): 0.499
minimum viability across doses (CAKI-1 [13]): 0.592
minimum viability across doses (SN12C [14]): 0.614
minimum viability across doses (TK-10 [15]): 0.646
minimum viability across doses (UO-31 [16]): 0.923
AUC of dose-response viability curve (769-P [17]): 2.32
AUC of dose-response viability curve (786-O [18]): 2.54
AUC of dose-response viability curve (A498 [19]): 3.2
AUC of dose-response viability curve (ACHN [20]): 1.87
AUC of dose-response viability curve (CAKI-1 [21]): 2.24
AUC of dose-response viability curve (SN12C [22]): 2.34
AUC of dose-response viability curve (TK-10 [23]): 2.6
AUC of dose-response viability curve (UO-31 [24]): 3.52
